Measured values taken from PubChem BioAssay (NCI).
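Each compound was tested at five concentrations against cells in 96-well plates for 48 hours. GI50 marks 50% less growth. Definition used: TGI = concentration required for complete inhibition of growth.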 *1 amine or outer side, *2 acyl side, *3 side chain or, on linkers, in order; H or OH if unused. Where a SMILES comes first, the peptide text is derived from it. Bridges are numbered along the chain shown (N, C = ends). [ ]: non-standard residue; d: D form. ξ: configuration not given here. X4 = CCC(C)C(N[*:1])C(O)CC(=O)O[C@H](C(=O)C(C)C(=O)[*:2])C(C)C; NMeY = CN[C@@H](Cc1ccc(O)cc1)C(=O)O; X9 = O=C([C@@H]1CC(O)CN1[*:1])[*:2]; ξNMeL = CNC(CC(C)C)C(=O)O; ξT = CC(O)C(N)C(=O)O

Experiments:
Assay in all cases: growth of human tumour cells (NCI), 48 h
[1] = tested on: KM20L2 colon
[2] = tested on: M19-MEL melanoma
[3] = tested on: HOP-18 NSCLC
[4] = tested on: RXF-631 renal
[5] = tested on: DMS 114 small cell lung
[6] = tested on: XF 498 CNS
[7] = tested on: MDA-N

SMILES | TGI [1] | TGI [2] | TGI [3] | TGI [4] | TGI [5] | TGI [6] | GI50 [7] | TGI [7]
CC(C)=CC(=O)Cc1nc2ccccc2[nH]c1=O | > 100 µM | > 100 µM | > 100 µM | > 100 µM | – | – | – | –
O=S(=O)(O)C(F)(F)C(F)(F)C(F)(F)C(F)(F)F | > 100 µM | > 100 µM | > 100 µM | – | > 100 µM | > 100 µM | – | –
CCN=C1NN=C(c2ccccc2)c2cc(Cl)ccc2N1 | – | 39.5 µM | > 100 µM | 41.7 µM | 43.9 µM | 45.2 µM | – | –
CCNC(=O)C(O)C1(O)CCC2[C@@H]3CCC4=CC(=O)C=C[C@]4(C)C3[C@@H](O)C[C@@]21C (some centres undefined) | > 100 µM | > 100 µM | > 100 µM | > 100 µM | > 100 µM | > 100 µM | – | –
CC[C@@]1(O)C(=O)NCc2c1cc1n(c2=O)Cc2cc3cc4c(cc3nc2-1)OCO4 | – | – | – | – | – | – | 3.23 µM | > 100 µM
C[C@]12CC[C@H]3[C@@H](CCC4=CC(=O)CC[C@@H]43)[C@@H]1CC[C@@H]2OC1(O)C(=O)c2ccccc2C1=O | – | – | – | – | – | – | – | 35.1 µM
COc1ccccc1NC(=O)CC(=O)n1nc(C)c(N=Nc2ccccc2F)c1C | > 100 µM | > 100 µM | > 100 µM | – | > 100 µM | > 83.3 µM | – | –
CCCOc1ccc(/C=C\c2cc(OC)c(OC)c(OC)c2)cc1 | > 100 µM | > 100 µM | > 100 µM | > 100 µM | > 100 µM | > 100 µM | – | –
N#CCCc1nc2ccc(Br)cc2c(=O)n1-c1ccc(O)c([N+](=O)[O-])c1 | > 100 µM | 42.3 µM | – | 33.9 µM | – | 34.9 µM | – | –
COC(=O)c1c/c(=N\NC(=O)CC(=O)Nc2ccccc2Cl)c2ccccc2o1 | > 100 µM | – | – | > 100 µM | > 100 µM | > 100 µM | – | –
CCCCCCCCCCCCCCCCC(C(=O)O)C(O)(CC(=O)O)C(=O)O (centres undefined) | – | – | – | – | – | – | – | > 100 µM
CCCCCCCCCCCCCCCC(=O)NC1CCc2cc(O)c(O)c(O)c2-c2ccc(SC)c(=O)cc21 (centres undefined) | 32.7 µM | – | – | 28.1 µM | 6.37 µM | 29.6 µM | – | –
CC1C(=O)N=C2C(=CN(Cc3ccccc3)c3ccccc32)C(=O)N1C (centres undefined) | – | – | – | – | – | – | – | > 100 µM
COc1ncnc2c(NC3OC(CO)C(O)C3O)ncnc12 (centres undefined) | > 100 µM | – | – | 15.4 µM | 1.09 µM | 7.84 µM | – | 22.8 µM
O=[N+]([O-])c1ccc(Cc2nc3ccccc3s2)cc1 | > 100 µM | > 100 µM | > 100 µM | – | > 100 µM | > 100 µM | – | –
C=CCOc1cc2c(cc1C(C)c1ccc(OC)cc1)OCO2 (centres undefined) | 1.21 µM | > 100 µM | – | – | 0.838 µM | 0.753 µM | – | > 100 µM
CC1(C)CCSC(/C=C/c2ccccc2)=N1 | – | – | – | – | – | – | – | 24.8 µM
CCC(C)C1NC(=O)C(NC(=O)C(CC(C)C)N(C)C(=O)[C@@H]2CC(O)CN2)C(C)OC(=O)[C@H](Cc2ccc(OC)cc2)N(C)C(=O)[C@@H]2CCCN2C(=O)[C@H](CC(C)C)NC(=O)C(C)C(=O)[C@H](C(C)C)OC(=O)CC1O (some centres undefined) (H-[X9][ξNMeL][ξT][X4]LP[NMeY](Me); ester 3-C) | – | – | – | – | – | – | – | 0.106 µM
O=C(CC(=O)Nc1ccc(Cl)cc1)NNCC(=O)Nc1nc(-c2ccccc2)cs1 | > 100 µM | > 100 µM | > 100 µM | – | > 100 µM | > 100 µM | – | –
COc1ccc(C2(CN(C)C)COc3cc(OC)c(OC)cc3C2=O)cc1OC (centres undefined) | > 100 µM | > 100 µM | > 100 µM | > 100 µM | 78.3 µM | > 100 µM | – | –

SMILES | TGI [1] | TGI [2] | TGI [3] | TGI [4] | TGI [5] | TGI [6] | GI50 [7] | TGI [7]
Cc1cccc(C(C)O)n1 (centres undefined) | – | – | – | – | – | – | – | > 100 µM
O=c1c2cc(Br)ccc2oc2ccc(Br)cc12 | – | – | – | – | – | – | – | > 100 µM
C/C(=N\NC(N)=S)c1ccc2c(c1)OCO2 | > 100 µM | > 100 µM | > 100 µM | > 100 µM | > 100 µM | > 100 µM | – | –
Clc1ccc(C2=Nc3ccccc3SC(c3ccc(Cl)c(Cl)c3)C2)c(Cl)c1 (centres undefined) | 39.7 µM | 32.2 µM | – | – | 27.1 µM | 26 µM | – | –
Cc1ccccc1C(C#N)/C(=N/NC(=O)c1cc2ccccc2cc1O)C(=O)Nc1cccc(Cl)c1 (centres undefined) | 94.4 µM | 52.1 µM | 73.4 µM | – | 51.8 µM | 73.3 µM | – | –
CCOC(=O)/C(C#N)=C(O)/C(=C/c1ccccc1Cl)NC(=O)c1ccccc1 | > 100 µM | > 100 µM | > 100 µM | – | > 100 µM | – | – | –
O=C1C(NCCO)=C(N2CC2)C(=O)C(NCCO)=C1N1CC1 | > 100 µM | > 59.8 µM | > 100 µM | – | > 50.9 µM | > 100 µM | – | > 100 µM
O=C1CCC(c2nc3ccccc3o2)C(=O)N1 (centres undefined) | > 100 µM | > 100 µM | > 100 µM | > 100 µM | > 100 µM | – | – | –
CN1C(c2ccccc2)CC(=Nc2ccccc2)CC1c1ccccc1 (centres undefined) | 26.5 µM | 15.7 µM | – | 67.6 µM | – | – | – | –
COc1cc2c(cc1OC)-c1c(cnn1C1OC(COC(C)=O)C(OC(C)=O)C(OC(C)=O)C1OC(C)=O)CC2 (centres undefined) | > 100 µM | > 100 µM | – | – | > 100 µM | – | – | –
O=C(Nc1ccc(C(F)(F)F)cc1[N+](=O)[O-])C(=O)C(C(=O)c1ccc2ccccc2c1)C1OC(=O)c2ccccc21 (centres undefined) | 38.7 µM | 42.7 µM | – | – | 40.5 µM | – | – | –
N=C(c1ccccc1)N1CCCCC1 | > 100 µM | > 100 µM | > 100 µM | – | > 100 µM | – | – | –
O=C(O)CC(Cc1ccc2c(c1)OCO2)C(=O)O (centres undefined) | – | – | – | – | – | – | – | > 100 µM
CC1CCC2(OC1)OC1CC3C4CC=C5CC(OC6OC(CO)C(OC7OC(C)C(OC8OC(C)C(O)C(O)C8O)C(O)C7O)C(O)C6OC6OC(C)C(O)C(O)C6O)CCC5(C)C4CCC3(C)C1C2C (centres undefined) | – | – | – | – | – | – | – | 1.43 µM
COC(=O)c1nc(-c2ccc(Cl)c(Cl)c2)nc2ccccc12 | > 100 µM | > 100 µM | 4.99 µM | > 100 µM | > 100 µM | 19.7 µM | – | –
CC1(C)OC2C(CO)OC(n3ccc(=O)[nH]c3=O)C2O1 (centres undefined) | – | – | – | – | – | – | – | > 100 µM
Cc1ccc2sc3cc(=O)cc(C)c-3nc2c1 | > 100 µM | 30.7 µM | > 100 µM | > 100 µM | > 100 µM | – | – | –
Cc1cc2c(C(C)C)c(O)c(O)c3coc(/c1=c1/c(C)cc4c(C(C)C)c(=O)c(=O)c5coc1c45)c32 | 18.1 µM | 19.7 µM | – | 22 µM | 6.48 µM | 17.4 µM | – | –
CC(=O)/C=C1/c2ccccc2N(C(C)=O)C1O (centres undefined) | > 100 µM | > 100 µM | > 100 µM | – | > 100 µM | – | – | –
